Where two headings read alike, the source gives them in different places.

Series [1] deals with P. falciparum stage V gametocytes. In words: Gametocytocidal ATP bioluminescence assay (single point 5 μM and 1 μM, dose-response). The format is cell-based, Plasmodium falciparum. The settings on record: for Ratio IC50 HepG2/IC50 P. falciparum: IC50 HepG2 divided by IC50 P. falciparum gametocytes.
Method: Purified stage IV-V gametocytes were obtained as previously described [10]. Single point ATP bioluminescence assay and dose–response of positive hits was determined in accordance with the previously published protocol [10].
Series [2] relates to luciferase reaction (BacTiter-Glo). Kind of series: Interference assay (inhibition of the BacTiter-Glo luciferase reaction). Format: biochemical. Also noted: concentration or dose not given beside the values. The following applies: ATP interference assay. Here is the method: To discard possible false-positive results, we performed an interference assay in parallel. […] […]. The ATP solution was made by dissolving ATP powder (ATP standard from the ATPlite 1 step assay kit, reference 6016731, Perkin Elmer) in culture medium. The positive control used was the Luciferase Inhibitor I Calbiochem (Merck, 119113) at 100 μM.

Series [3] is described as follows: Cytotoxicity in HepG2 cells (intracellular ATP, ATPlite, 48 h). Format: cell-based, human. The settings on record: human, HepG2 cells. A general note: In ATP-based viability assays light output follows the ATP content of the culture.
The subject of a further series is HepG2 cells. The description is as above. The settings on record: IC50 HepG2 divided by IC50 P. falciparum gametocytes. The format is cell-based, human.
The test system of series [4] is P. falciparum asexual stages. The following applies: TCAMS data, cited from earlier work.
[5] abbreviates: Plasmodium falciparum, P. falciparum gametocytes, average, read-out: IC50 Pf Gametocytes average, IC50 (µM) average.
The mark [6] stands for this setting: Plasmodium falciparum, sexual stages (gametocytes), dose-response, read-out: IC50 sexual.
Where [7] appears, read: IC50 per ratio column head, unit inferred, read-out: Cytotoxicity in HepG2.
Setting [8] is: P. falciparum asexual stages, read-out: IC50 (µM) Pf asexual stages.
Setting [9] is: asexual stages, read-out: IC50 asexual.
Where [10] appears, read: HepG2, 48 h exposure, intracellular ATP, read-out: IC50 (μM) Cytotoxicity HepG2.
The mark [11] stands for this setting: sexual stages (gametocytes), dose-response, read-out: IC50 sexual.

Consider `Cn1nc(C(F)(F)F)c(-c2ccc(Br)cc2)c1NC(=O)Cc1ccccc1F` [TCMDC-123792], for which the “Ratio IC50 HepG2/IC50 P. falciparum” value (in series [1]; in the series on HepG2 cells) was greater than 14 each time. Moreover, the IC50 in series [1] (setting [5]) was 1.79 µM; in series [1] (setting [6]), 1.79 µM; in series [4] (setting [8]) it was 0.16 µM; in series [4] (setting [9]) it was 0.157 µM. Moreover, in series [2], the “% Control luminiscence” value is 100%. Further, the IC50 at 48 h in series [3] (setting [7]) was greater than 25 µM.
As to `COc1cc2nc(N3CCN(c4nc(N)c5cc(OC)c(OC)cc5n4)CC3)nc(N)c2cc1OC` [TCMDC-123865], the “Ratio IC50 HepG2/IC50 P. falciparum” value (in series [1]; with HepG2 cells) was greater than 96 each time. Further, the figures for the IC50 in series [1] (setting [5]), in series [4] (setting [8]) and in series [4] (setting [9]) were 0.26 µM, 0.15 µM and 0.146 µM, respectively. For the same compound, in series [2], the “% Control luminiscence” value is 100%. Besides, the IC50 at 48 h in series [3] (setting [7]) is greater than 25 µM.
On to `C=CCN(C(=O)c1ccc(Cl)c([N+](=O)[O-])c1)c1nc(-c2ccccc2)cs1` [TCMDC-124436], for which the “Ratio IC50 HepG2/IC50 P. falciparum” value (in series [1]; in the series on HepG2 cells) was greater than 237 each time. Also, the IC50 in series [1] (setting [5]) was 0.11 µM; in series [1] (setting [6]), 0.105 µM; in series [4] (setting [8]) it was 0.4 µM; in series [4] (setting [9]), 0.398 µM. Besides, the “% Control luminiscence” value in series [2] stood at 100%. For the same compound, the IC50 at 48 h in series [3] (setting [7]) is greater than 25 µM.
On to `Cc1cc(Nc2ccncc2)n2nc(C)c(-c3ccc(Cl)cc3)c2n1` [TCMDC-124478], for which the “Ratio IC50 HepG2/IC50 P. falciparum” value (in series [1]; in the series on HepG2 cells) was greater than 55 each time. Further, the IC50 is 0.91 µM in series [1] (setting [5]), 0.913 µM in series [1] (setting [6]), 0.16 µM in series [4] (setting [8]) and 0.157 µM in series [4] (setting [9]). Besides, the “% Control luminiscence” value in series [2] was found to be 100%. The IC50 at 48 h in series [3] (setting [10]) was greater than 25 µM; in series [3] (setting [7]) it was greater than 50 µM.
With `Cc1ccc(C)c(CC(=O)N2CCC(n3c(C)nc4ccc(F)cc43)CC2)c1` [TCMDC-124790], the “Ratio IC50 HepG2/IC50 P. falciparum” value (in series [1]; with HepG2 cells) was greater than 27 each time. The IC50 in series [1] (setting [5]) is 0.92 µM; in series [1] (setting [6]), 0.923 µM; in series [4] (setting [8]) it was 0.19 µM; in series [4] (setting [9]), 0.193 µM. In series [2], the “% Control luminiscence” value is on record as 100%. For the same compound, the IC50 at 48 h in series [3] (setting [7]) is greater than 25 µM.
For the compound `COc1cccc(CC(=O)N2CCC(n3c(C)nc4ccc(C)cc43)CC2)c1` [TCMDC-124791], the “Ratio IC50 HepG2/IC50 P. falciparum” value (in series [1]; with HepG2 cells) was greater than 53 each time. For the same compound, the IC50 in series [1] (setting [5]) is 0.47 µM; in series [4] (setting [8]), 0.11 µM; in series [4] (setting [9]), 0.114 µM. Moreover, the “% Control luminiscence” value in series [2] is 100%. Also, in series [3] (setting [7]), the IC50 at 48 h was greater than 25 µM.
As to `O=C(c1ccc([N+](=O)[O-])o1)N1CCC(Cc2ccc(C(F)(F)F)cc2)CC1` [TCMDC-124805], the “Ratio IC50 HepG2/IC50 P. falciparum” value (in series [1]; in the series with HepG2 cells) was 55 each time. Further, the IC50 in series [1] (setting [5]) is 0.26 µM; in series [1] (setting [6]), 0.257 µM; in series [4] (setting [8]), 0.17 µM; in series [4] (setting [9]) it was 0.166 µM. Also, the “% Control luminiscence” value in series [2] is 100%. Further, the IC50 at 48 h in series [3] (setting [10]) turned out to be 14 µM; in series [3] (setting [7]) it was 14.1 µM.
In the case of `CCc1nn2c(Nc3ccncc3)cc(C)nc2c1-c1ccccc1` [TCMDC-124917], the “Ratio IC50 HepG2/IC50 P. falciparum” value (in series [1]; in the series on HepG2 cells) was greater than 13 each time. In addition, the IC50 in series [1] (setting [5]) was 1.9 µM; in series [1] (setting [6]), 1.9 µM; in series [4] (setting [8]) it was 0.2 µM; in series [4] (setting [9]) it was 0.203 µM. The “% Control luminiscence” value in series [2] amounted to 93%. The IC50 at 48 h in series [3] (setting [7]) was greater than 25 µM.
As to `FC(F)c1nc2ccccc2n1-c1nc(N2CCOCC2)nc(N2CCOCC2)n1` [TCMDC-137004], in series [1], the “Ratio IC50 HepG2/IC50 P. falciparum” value is given as 0.291. The IC50 in series [1] (setting [5]) is 5.44 µM; in series [1] (setting [11]), 5.44 µM; in series [4] (setting [9]), 0.761 µM. For the same compound, the “% Control luminiscence” value in series [2] is listed as 98%. Moreover, the IC50 at 48 h in series [3] (setting [7]) stood at 1.58 µM.
`N=C(NCC1CC1c1ccccc1)c1cccc(C(=N)NCC2CC2c2ccccc2)n1` (centres unmarked) [TCMDC-137456]: in series [1], the “Ratio IC50 HepG2/IC50 P. falciparum” value came out at 15. The IC50 in series [1] (setting [5]) is 0.45 µM; in series [4] (setting [9]) it was 1.76 µM. The “% Control luminiscence” value in series [2] amounted to 100%. Further, the IC50 at 48 h in series [3] (setting [7]) was 6.8 µM.
As to `CN1CCN(CCCCNc2c3ccccc3nc3ccccc23)CC1` [TCMDC-137479], the “Ratio IC50 HepG2/IC50 P. falciparum” value in series [1] was 2.57. In addition, the figures for the IC50 in series [1] (setting [5]), in series [1] (setting [11]) and in series [4] (setting [9]) were 1.32 µM, 1.32 µM and 0.704 µM, respectively. Moreover, the “% Control luminiscence” value in series [2] is 100%. Moreover, the IC50 at 48 h in series [3] (setting [7]) amounted to 3.39 µM.
In the case of `COc1ccc2nc(-c3ccccc3)cc(NCCCNc3cc(-c4ccccc4)nc4ccc(OC)cc34)c2c1.Cl` [TCMDC-137734], the “Ratio IC50 HepG2/IC50 P. falciparum” value in series [1] was found to be 4.53. Further, the IC50 in series [1] (setting [5]) was 1.21 µM; in series [1] (setting [11]), 1.21 µM; in series [4] (setting [9]) it was 0.122 µM. The “% Control luminiscence” value in series [2] amounted to 100%. In series [3] (setting [7]), the IC50 at 48 h worked out at 5.5 µM.
Take `COc1cc2nc(N3CCN(C(=O)c4c(Cl)nsc4-c4ccccc4Cl)CC3)nc(N)c2cc1OC.O=C(O)C(F)(F)F` [TCMDC-138186]: in series [1], the “Ratio IC50 HepG2/IC50 P. falciparum” value turned out to be 38. Also, the IC50 in series [1] (setting [5]) is 0.22 µM; in series [1] (setting [11]), 0.215 µM; in series [4] (setting [9]), 0.534 µM. Moreover, in series [2], the “% Control luminiscence” value turned out to be 100%. The IC50 at 48 h in series [3] (setting [7]) is 8.18 µM.
For the compound `COc1cc2nc(N3CCC(CNC(=O)c4ccc(-c5ccc(-c6noc(C)n6)cc5)cc4)CC3)nc(N)c2cc1OC` [TCMDC-138754], the “Ratio IC50 HepG2/IC50 P. falciparum” value in series [1] is on record as 39. The results for the IC50 in series [1] (setting [5]) and in series [4] (setting [9]) were 0.11 µM and 0.139 µM, respectively. Further, the “% Control luminiscence” value in series [2] worked out at 97%. For the same compound, the IC50 at 48 h in series [3] (setting [7]) is 4.33 µM.
In the case of `COc1cc2nc(N3CCC(CNCc4ccc(-c5ccc(C(F)(F)F)cc5)cc4)CC3)nc(N)c2cc1OC` [TCMDC-138757], the “Ratio IC50 HepG2/IC50 P. falciparum” value in series [1] was less than 88. In addition, the results for the IC50 in series [1] (setting [5]), in series [1] (setting [11]) and in series [4] (setting [9]) were 0.0177 µM, 0.018 µM and 0.087 µM, respectively. Further, in series [2], the “% Control luminiscence” value came to 100%. Also, the IC50 at 48 h in series [3] (setting [7]) was less than 1.56 µM.
Regarding `CC(C)CCNC(=O)c1cnc2c(O)cccc2c1Nc1cccc(NC(=O)c2ccc(F)cc2)c1.O=C(O)C(F)(F)F` [TCMDC-139606], the “Ratio IC50 HepG2/IC50 P. falciparum” value in series [1] turned out to be 4. Besides, the IC50 in series [1] (setting [5]) is 1.27 µM; in series [4] (setting [9]), 0.913 µM. Moreover, the “% Control luminiscence” value in series [2] is 98%. For the same compound, the IC50 at 48 h in series [3] (setting [7]) was 5.27 µM.
Consider `COc1ccc(CNC(=O)c2cnc3c(O)cccc3c2Nc2cccc(NC(=O)c3ccc(Cl)c(Cl)c3)c2)cc1.O=C(O)C(F)(F)F` [TCMDC-139607], for which the “Ratio IC50 HepG2/IC50 P. falciparum” value in series [1] is on record as less than 2.3. In addition, the IC50 was 0.68 µM in series [1] (setting [5]) and 0.604 µM in series [4] (setting [9]). In addition, the “% Control luminiscence” value in series [2] is listed as 100%. For the same compound, the IC50 at 48 h in series [3] (setting [7]) is less than 1.56 µM.
`COc1cc(NCC(C)CNCc2cn(Cc3ccccc3)c3ccccc23)nc2ccccc12` (centres unmarked) [TCMDC-140496]: the “Ratio IC50 HepG2/IC50 P. falciparum” value in series [1] is reported as 3. Moreover, the IC50 is 1.71 µM in series [1] (setting [5]) and 0.633 µM in series [4] (setting [9]). Moreover, the “% Control luminiscence” value in series [2] amounted to 100%. Further, in series [3] (setting [7]), the IC50 at 48 h stood at 5 µM.

The values are drawn from PMC4552634, “A New Set of Chemical Starting Points with Plasmodium falciparum Transmission-Blocking Potential for Antimalarial Drug Discovery” (PLoS ONE, 2015).
